Measured values published in article PMC10700139 (Nature, 2023).
“And” between values parts separate entries of the source, which are not always exact repeats. Equal values may be shown once.

Experiments:
[1] = Stability of isolated 9 in deuterated solvents (1H NMR, LC-MS); format: physicochemical; settings: resuspended in CDCl3 or CD3OD, 1H NMR over time
Method: Also, on drying of our sample from CDCl3, we noted a colour change from yellow/brown to red. Loss of our compound was confirmed through LC–MS analysis. However, we observed that during the course of purification, a compound pertaining to an oxidation of 9 ([…]; equal to 9 + oxygen) accumulated to high concentrations. […] As such, we purified this compound using the same strategy outlined above (yield of about 3 mg) and determined a putative structure (proposed 9′) through NMR analysis. For 9′, deuterated ACN (CD3CN) was used as a solvent and spectra were collected on a Varian Inova 600 MHz NMR spectrometer at room temperature (Supplementary Figs. 12–18).

PtCAL-1a/PtCAL-2a = biological target: T1, PtCAL-1a/PtCAL-2a (Phlegmariurus tetrastichus, UniProt P0DXL1+P0DXL3); assay: In vitro reactions with apoplastic PtCAL-1a/PtCAL-2a (formation of 9, decarboxylation of 3, Zn chelator); format: biochemical
T1 construct: N-terminal signal peptide[58], which would be cleaved during processing and trafficking of these proteins; made in house; host or cells: Nicotiana benthamiana leaves (Agrobacterium transient co-expression, pEAQ-HT), concentrated apoplast extract
T1 sequence (P0DXL1 22-280): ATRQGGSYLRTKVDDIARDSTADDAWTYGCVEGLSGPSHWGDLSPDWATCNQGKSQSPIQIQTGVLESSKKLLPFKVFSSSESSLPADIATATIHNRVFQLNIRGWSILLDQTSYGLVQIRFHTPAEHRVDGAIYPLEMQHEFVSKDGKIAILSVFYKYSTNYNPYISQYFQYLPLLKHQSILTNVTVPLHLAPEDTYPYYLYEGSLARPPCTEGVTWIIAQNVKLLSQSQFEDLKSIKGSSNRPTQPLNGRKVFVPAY
T1 sequence (P0DXL3 24-284): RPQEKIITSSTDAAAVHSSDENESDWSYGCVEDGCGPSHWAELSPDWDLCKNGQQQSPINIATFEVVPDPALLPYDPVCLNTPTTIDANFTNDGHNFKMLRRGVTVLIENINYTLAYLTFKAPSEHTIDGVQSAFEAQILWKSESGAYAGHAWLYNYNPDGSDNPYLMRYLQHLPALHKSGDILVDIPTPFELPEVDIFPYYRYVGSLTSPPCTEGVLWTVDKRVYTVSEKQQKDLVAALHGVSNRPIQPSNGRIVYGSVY
Text: The three CAL proteins identified in this study have predicted N-terminal signal peptides, which were identified using the TargetP-2.0 server (https://services.healthtech.dtu.dk/service.php?TargetP-2.0)[58]. […] To assess this possibility, CAL genes with or without C-terminal 6xHis tags were transiently expressed in N. benthamiana, as described above. Each CAL gene was expressed individually; also, PtCAL-1a and PtCAL-2a were transiently co-expressed in the same leaf because we had found them to cofunction in Lycopodium alkaloid biosynthesis. At 4 days after Agrobacterium infiltration, apoplast protein extracts were isolated using the infiltration–centrifugation method, much as previously described. Two leaves per reaction were excised from the plant and submerged in ice-cold apoplast extraction buffer (100 mM MES, 300 mM NaCl, pH 5.5) in an open-capped 50 ml Falcon tube and these tubes were placed in a plastic vacuum chamber attached to a Welch Model 2025 vacuum pump. The chamber was brought down to full vacuum and after 2 min at this pressure, the vacuum was slowly released to allow for buffer to infiltrate the leaf apoplastic space. Buffer-infiltrated leaves were carefully removed from the Falcon tubes, blotted dry with paper towels and were then rolled into Parafilm and placed in a plungerless 5 ml plastic syringe. The syringe was placed in a 15 ml Falcon tube and this was then centrifuged at 1,000g and 4 °C for 10 min to collect apoplast extract. The resulting extract was centrifuged at 10,000g and 4 °C for 15 min to pellet any larger cellular debris and the supernatant was concentrated using an Amicon Ultra-4 Centrifugal Filter Unit (10 kDA MWCO, MilliporeSigma UFC501024). Protein concentrations were measured using the BIO-RAD Protein Assay or Bradford assay (Abcam 119216) and adjusted with apoplast extraction buffer to a final concentration between 0.5 and 1.5 mg ml^−1. Aliquots of the extracts were snap frozen in liquid nitrogen and stored at −80 °C.
Reactions with CAL-enriched apoplast were routinely performed in low-pH potassium phosphate buffer (50 mM potassium phosphate, 100 mM NaCl, pH 5.9) at a volume of 20 µl. For PtCAL-1a/PtCAL-2a, these reactions contained approximately 1.4 µg of apoplast protein for each CAL (final concentration of 0.07 µg µl^−1). Control reactions used apoplast from leaves expressing only one CAL or with apoplast generated from GFP-expression N. benthamiana leaves. The requisite substrates for this reaction were generated through the activities of in vitro PtPIKS-1 and PtCYP782C1 enzyme reactions. […]. To generate 3 and 4 as potential substrates, 1 µg of previously purified PtPIKS-1 enzyme[23] and 150 µM 1 and 300 µM malonyl-CoA were added directly to the CAL reaction mixtures. After thorough mixing, reactions were incubated at room temperature. An alternative route for producing 3 and 4 independently of thioester intermediates was achieved by mixing stocks of 1 (10 mM in water) and 2 (10 mM in water; always prepared fresh to minimize compound decomposition) in equal proportion, followed by incubation at room temp for 1–2 h, as these two substrates can non-enzymatically condense to yield 3 (which can spontaneously decarboxylate to produce 4). A 2 µl aliquot of this mixture was then added as a component of the PtCAL-1a/PtCAL-2a enzyme reaction (20 µl total reaction volume) in addition to the PtCYP782C1 microsomal reaction mixture. After predesignated incubation times, reactions were quenched by diluting tenfold into ACN with 0.1% formic acid.
To evaluate the potential decarboxylation of β-keto acid substrates by PtCAL-1/PtCAL-2 and PtCAL-3, only 3 or 2, respectively, were added as substrate. PtCAL-1/PtCAL-2 reactions were quenched by diluting aliquots tenfold into ACN with 0.1% formic acid and were subsequently analysed through HILIC LC–MS. PtCAL-3 reactions were quenched by mixing aliquots with an equal volume of water with 0.2% formic acid and were then analysed through C18 LC–MS. […]

## CC1CC2=NCCCC2=C(CC2CCCCN2)C1 (centres unmarked) [compound 9]
[1]
  stability of isolated compound: relatively unstable
PtCAL-1a/PtCAL-2a; PtCAL-1a/PtCAL-2a +3, +8, +PDCA, +Zn, 0.5 hrs (ED 4i)
  ion abundance of 9 (m/z 164.1434) over time: 127782 and 135642 and 127803
PtCAL-1a/PtCAL-2a; PtCAL-1a/PtCAL-2a +3, +8, +PDCA, +Zn, 2 hrs (ED 4i)
  ion abundance of 9 (m/z 164.1434) over time: 473171 and 458012 and 448492
PtCAL-1a/PtCAL-2a; PtCAL-1a/PtCAL-2a +3, +8, +PDCA, +Zn, 6 hrs (ED 4i)
  ion abundance of 9 (m/z 164.1434) over time: 1066834 and 1174532 and 1104641
PtCAL-1a/PtCAL-2a; PtCAL-1a/PtCAL-2a +3, +8, +PDCA, +Zn, 24 hrs (ED 4i)
  ion abundance of 9 (m/z 164.1434) over time: 1783309 and 1828274 and 1979732
PtCAL-1a/PtCAL-2a; PtCAL-1a/PtCAL-2a +3, +8, +PDCA, 0.5 hrs (ED 4i)
  ion abundance of 9 (m/z 164.1434) over time: 126896 and 128709 and 118410
PtCAL-1a/PtCAL-2a; PtCAL-1a/PtCAL-2a +3, +8, +PDCA, 2 hrs (ED 4i)
  ion abundance of 9 (m/z 164.1434) over time: 460080 and 448051 and 514634
PtCAL-1a/PtCAL-2a; PtCAL-1a/PtCAL-2a +3, +8, +PDCA, 6 hrs (ED 4i)
  ion abundance of 9 (m/z 164.1434) over time: 1133647 and 1079904 and 1109219
PtCAL-1a/PtCAL-2a; PtCAL-1a/PtCAL-2a +3, +8, +PDCA, 24 hrs (ED 4i)
  ion abundance of 9 (m/z 164.1434) over time: 1692906 and 1937168 and 1863327
PtCAL-1a/PtCAL-2a; PtCAL-1a/PtCAL-2a +3, +8, 0.17 hrs
  ion abundance of 9 (m/z 164.1434) over time: 5042 and 4513 and 5355
PtCAL-1a/PtCAL-2a; PtCAL-1a/PtCAL-2a +3, +8, 0.5 hrs (ED 4i)
  ion abundance of 9 (m/z 164.1434) over time: 123276 and 137673 and 112913
PtCAL-1a/PtCAL-2a; PtCAL-1a/PtCAL-2a +3, +8, 2 hrs (ED 4i)
  ion abundance of 9 (m/z 164.1434) over time: 446630 and 485400 and 412047
PtCAL-1a/PtCAL-2a; PtCAL-1a/PtCAL-2a +3, +8, 6 hrs (ED 4i)
  ion abundance of 9 (m/z 164.1434) over time: 1143938 and 1142219 and 1013243
PtCAL-1a/PtCAL-2a; PtCAL-1a/PtCAL-2a +3, +8, 8.00 hrs
  ion abundance of 9 (m/z 164.1434) over time: 777915 and 631565 and 1080330
PtCAL-1a/PtCAL-2a; PtCAL-1a/PtCAL-2a +3, +8, 20.00 hrs
  ion abundance of 9 (m/z 164.1434) over time: 2280194 and 1799167 and 2350932
PtCAL-1a/PtCAL-2a; PtCAL-1a/PtCAL-2a +3, +8, 24.00 hrs
  ion abundance of 9 (m/z 164.1434) over time: 2573277 and 1958546 and 2242168
PtCAL-1a/PtCAL-2a; PtCAL-1a/PtCAL-2a +3, +8, 24 hrs (ED 4i)
  ion abundance of 9 (m/z 164.1434) over time: 1814580 and 1825623 and 1787378
PtCAL-1a/PtCAL-2a; PtCAL-1a/PtCAL-2a +3, +8, +PtCAL-3, 0.17 hrs
  ion abundance of 9 (m/z 164.1434) over time: 8935 and 8139 and 7454
PtCAL-1a/PtCAL-2a; PtCAL-1a/PtCAL-2a +3, +8, +PtCAL-3, 0.50 hrs
  ion abundance of 9 (m/z 164.1434) over time: 15312 and 11348 and 14678
PtCAL-1a/PtCAL-2a; PtCAL-1a/PtCAL-2a +3, +8, +PtCAL-3, 2.00 hrs
  ion abundance of 9 (m/z 164.1434) over time: 132103 and 73247 and 110763
PtCAL-1a/PtCAL-2a; PtCAL-1a/PtCAL-2a +3, +8, +PtCAL-3, 4.00 hrs
  ion abundance of 9 (m/z 164.1434) over time: 477805 and 480278 and 470081
PtCAL-1a/PtCAL-2a; PtCAL-1a/PtCAL-2a +3, +8, +PtCAL-3, 8.00 hrs
  ion abundance of 9 (m/z 164.1434) over time: 1471863 and 934058 and 1569447
PtCAL-1a/PtCAL-2a; PtCAL-1a/PtCAL-2a +3, +8, +PtCAL-3, 24.00 hrs
  ion abundance of 9 (m/z 164.1434) over time: 2382612 and 1957618 and 2845113
